According to US20110263527A1, “Sulfated Galactans With Antithrombotic Activity, Pharmaceutical Composition, Method for Treating or Prophylaxis of Arterial or Venous Thrombosis, Method of Extraction and Use Thereof” (priority 2008, published 2011):

Key:
factor XII = target: T1, factor XII (Homo sapiens, UniProt P00748); assay: Activation of factor XII in human plasma in the presence of sulfated polysaccharides; format: biochemical; details: chromogenic substrate S-2302, FIG. 4
T1 construct: from tissue; host or cells: citrated human plasma
T1 sequence (P00748 20-615): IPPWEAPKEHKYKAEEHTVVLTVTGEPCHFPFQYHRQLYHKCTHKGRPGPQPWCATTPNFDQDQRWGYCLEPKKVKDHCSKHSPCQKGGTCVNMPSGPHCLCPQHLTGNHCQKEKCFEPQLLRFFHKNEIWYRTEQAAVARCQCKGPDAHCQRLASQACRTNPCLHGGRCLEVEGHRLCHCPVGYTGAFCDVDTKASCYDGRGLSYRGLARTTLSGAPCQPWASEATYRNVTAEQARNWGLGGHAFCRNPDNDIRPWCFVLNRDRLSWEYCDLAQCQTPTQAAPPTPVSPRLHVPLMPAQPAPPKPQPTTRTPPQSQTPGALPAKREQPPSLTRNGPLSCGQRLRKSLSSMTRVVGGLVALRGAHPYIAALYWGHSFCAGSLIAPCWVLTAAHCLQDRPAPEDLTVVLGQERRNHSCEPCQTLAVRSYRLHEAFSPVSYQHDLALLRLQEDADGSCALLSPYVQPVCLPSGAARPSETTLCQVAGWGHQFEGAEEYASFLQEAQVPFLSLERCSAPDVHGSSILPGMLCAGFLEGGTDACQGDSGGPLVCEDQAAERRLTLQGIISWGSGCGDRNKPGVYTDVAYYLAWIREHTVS
Experimental: FIG. 4 refers to the factor XII activation in human plasma incubated with non-fractionated heparin (□), native sulfated galactans (▴), ˜14 kDa fragment (◯) and a ˜5 kDa fragment ([…]). After 60 seconds of incubation at 37° C., 0.3 mM of chromogenic substrate for plasma calicrein was added. The increase in absorbance at 405 nm was expressed in milli OD/min (mean±standard error of the mean (SEM), n=3).
h) Activation of Factor XII in the Presence of Sulfated Polysaccharides
The assays for activation of factor XII were performed on plates of 96 wells. Citrated human plasma was diluted with 3 volumes of TS buffer and samples (40 μL) were incubated with different concentrations of sulfated polysaccharides (30 μL). After incubation at 37° C. for 60 seconds, were added 30 μL of chromogenic substrate (S-2302, 0.3 mM) (Chromogenix AB, Mondal, Sweden) and absorbance at 405 nm for 300 seconds was recorded. S-2302 is a chromogenic substrate for plasma calicrein activated by its precalicrein precursor through the action of activated factor XII. The method for determining the activity of factor XIIa is based on difference in absorbance between formed p-nitroanilide and original substrate. The formation rate of p-nitroanilide, i.e., the increase in absorbance at 405 nm, is proportional to enzyme activity. No activation occurred in control experiments in the absence of sulfated polysaccharide.

[1] = International Standard (85/600); cited from earlier work
[2] = target: T2, thrombin (antithrombin-mediated inactivation) (Homo sapiens, UniProt P00734+P01008); assay: Thrombin inhibition by antithrombin in the presence of sulfated polysaccharides; format: biochemical; details: antithrombin 10 nM, thrombin 2 nM, FIG. 2A
T2 construct: purchased Haematologic Technologies Inc., Vermont, USA
Experimental: (§1) Antithrombin (10 nM) or of heparin cofactor II (15 nM) were incubated with thrombin (2 nM) or factor Xa (2 nM) in the presence of various concentrations of non-fractionated heparin (□), low molecular weight heparin (▪), native sulfated galactans (▴), ˜14 kDa fragment (◯) and a ˜5 kDa fragment ([…]). After 60 seconds, the amidolytic thrombin activity and factor Xa were determined with a chromogenic substrate specific for each protease ([…]) [mean±standard error of the mean (SEM), n=3]. No inhibition was observed when thrombin or factor Xa was incubated with sulfated polysaccharide alone over the same range of tested concentrations.
(§2) g) Thrombin Inhibition or Factor Xa by Antithrombin and Heparin Cofactor II in the Presence of Sulfated Polysaccharides
(§3) The incubations were performed on plates of 96 wells. […] After 60 seconds at 37° C., were added 25 μL chromogenic substrate (S-2238 for thrombin or S-2222 for factor Xa) (Chromogenix AB, Mondal, Sweden), and was recorded absorbance at 405 nm for 120 seconds. The rate of absorbance change was proportional to the activity of thrombin or factor Xa remaining in the incubation. […]

[3] = target: T3, thrombin (heparin cofactor II-mediated inactivation) (Homo sapiens, UniProt P00734+P05546); assay: Thrombin inhibition by heparin cofactor II in the presence of sulfated polysaccharides; format: biochemical; details: heparin cofactor II 15 nM, thrombin 2 nM, FIG. 2C
T3 construct: purchased Haematologic Technologies Inc., Vermont, USA
Experimental: as §1, §2, §3

[4] = target: T4, factor Xa (antithrombin-mediated inactivation) (Homo sapiens, UniProt P00742+P01008); assay: Factor Xa inhibition by antithrombin in the presence of sulfated polysaccharides; format: biochemical; details: antithrombin 10 nM, factor Xa 2 nM, FIG. 2B
T4 construct: thrombin or factor Xa 2 nM (Haematologic Technologies Inc., Vermont, USA); purchased Haematologic Technologies Inc., Vermont, USA
T4 sequence (P00742 41-179 limits assumed): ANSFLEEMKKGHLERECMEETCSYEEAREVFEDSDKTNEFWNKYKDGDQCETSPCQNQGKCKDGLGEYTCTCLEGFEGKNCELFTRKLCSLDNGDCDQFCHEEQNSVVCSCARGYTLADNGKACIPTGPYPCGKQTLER
T4 sequence (P00742 235-488 limits assumed): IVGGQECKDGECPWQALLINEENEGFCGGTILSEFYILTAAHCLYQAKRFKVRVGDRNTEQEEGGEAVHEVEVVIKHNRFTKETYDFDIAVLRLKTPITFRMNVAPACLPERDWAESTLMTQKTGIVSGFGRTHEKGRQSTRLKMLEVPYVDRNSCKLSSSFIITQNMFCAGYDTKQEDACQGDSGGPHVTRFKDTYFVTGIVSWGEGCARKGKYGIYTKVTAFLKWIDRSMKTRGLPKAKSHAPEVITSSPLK
T4 sequence (P01008 33-464): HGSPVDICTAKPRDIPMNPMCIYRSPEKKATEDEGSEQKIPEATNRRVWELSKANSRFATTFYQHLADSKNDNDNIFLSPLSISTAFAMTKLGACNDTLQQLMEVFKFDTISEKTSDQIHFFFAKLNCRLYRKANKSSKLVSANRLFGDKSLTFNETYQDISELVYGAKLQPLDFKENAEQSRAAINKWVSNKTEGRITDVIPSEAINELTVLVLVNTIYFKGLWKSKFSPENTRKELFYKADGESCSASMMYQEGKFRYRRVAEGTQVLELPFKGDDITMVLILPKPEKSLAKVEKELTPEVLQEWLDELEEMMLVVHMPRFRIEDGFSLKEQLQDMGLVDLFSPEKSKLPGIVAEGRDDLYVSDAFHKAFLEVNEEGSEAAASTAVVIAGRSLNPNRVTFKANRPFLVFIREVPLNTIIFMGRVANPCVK
Experimental: as §1, §2, §3

venous thrombosis = assay: Venous thrombosis model (vena cava, thromboplastin and stasis); format: in vivo, Wistar rats; details: 1.00 mg/kg; FIGS. 3A and 3B
Experimental: Assays were performed in rats with different doses of non-fractionated heparin (□), low molecular weight heparin (▪), native sulfated galactans (▴), ˜14 kDa fragment (◯) and a ˜5 kDa fragment ([…]) (mean±standard error of the mean (SEM), n=3). Thrombosis induced model (A and B) in the rats' vena cava. The mean weight of the thrombus for each dose was expressed as a percentage of weight in the absence of polysaccharide, (C) Thrombosis in the arteriovenous shunt model. The mean weight of the thrombus for each dose was expressed as a percentage of the weight of thrombus in the absence of polysaccharide, (D) laser irradiation induced arterial thrombosis model in the carotid artery. Results were expressed as the mean time to complete occlusion of the artery.
The antithrombotic activity in rats was investigated using rabbit brain thromboplastin with thrombogenic stimulus. We followed the guidelines for institutional animal care and experimentation. Wistar rats (both sexes, body weight of ˜250 g) were anesthetized with a mixture of ketamine and xylazine, as already described. […] A 0.7 cm segment was prepared starting just below the branching of the right renal vein and extending until after the left renal vein which was linked. Different doses of sulfated polysaccharides were intravenously administered 1 cm below the distal lost suture and moved left for 5 minutes. […]

bleeding = tested on: bleeding; set-up: species or system Wistar rats; details: rat, in vivo
Experimental: FIG. 6 refers to the effect on bleeding. Non-fractionated heparin (□), low molecular weight heparin (▪), native sulfated galactans (▴), and ˜5 kDa fragment ([…]) were infused into rats. After 5 minutes, the rats' tails were cut 3 mm from the tip and immersed in 40 mL of distilled water at room temperature. The loss of blood was determined after 60 minutes through the measure of hemoglobin in water. The results were expressed in μL of loss blood (mean±standard error of the mean (SEM), n=4). For clarity purposes only one SEM bar is shown for each point.
Wistar rats (both sexes, body weight ˜250 g) were anesthetized with a mixture of ketamine and xylazine, as previously described. The right carotid artery was cannulated and different polysaccharides doses were infused and allowed to circulate for 5 minutes. The rats tail was cut 3 mm from the tip and immersed in 40 mL of distilled water at room temperature. After 60 minutes, blood loss was determined by measuring the hemoglobin in water by using a spectrophotometric method (Zancan P, Mourão P A S. Venous and arterial thrombosis in rat models: dissociation of the antithrombotic effects of giycosaminoglycans. Blood Coagul Fibrin 2004; 15: 45-54). The blood volume was drawn from a standard curve based on absorbance at 540 nm.

Substance: dextran sulfate
- factor XII activation (factor XII): activates factor XII

Substance: low molecular weight heparin
- activity of the standard [1]: 66 IU/mg
- inactivation of thrombin by antithrombin [2]: more active than ˜5 kDa fragment
- inactivation of thrombin by heparin cofactor II [3]: more active than ˜5 kDa fragment
- inactivation of factor Xa by antithrombin [4]: more active than ˜5 kDa fragment
- antithrombotic activity (venous thrombosis): approximately 70%
- effect on bleeding (hemorrhagic effect, bleeding time) (bleeding): had no effect
